“Also recorded” adds a separate entry of the source. Where a name gives a salt, the structure may show the parent alone. Read-outs that look alike come from different tables or passages of the source.
What was measured:
thalamic neurons [1] = test: Drug effect on evoked EPSPs (eEPSP) in thalamic slices, current clamp; format: cell-based, mouse
Description: Thalamic slices (300 μm) from 14-18 day old mouse pups (FVB/NJ mice; Jackson Laboratory) were cut on a Vibratome (TPI) in an ice-cold cutting solution containing (in mM): 2.5 KCl, 1.25 NaH2PO4, 10 MgSO4, 5 CaCl2, 10 glucose, 26 NaHCO3, 230 sucrose and gassed with 5% CO2 and 95% O2. Slices were incubated for a minimum of 1 hr in a slice solution containing (in mM): 126 NaCl, 2.5 KCl, 1.25 NaH2PO4, 2 MgCl2, 2 CaCl2, 10 glucose, and 26 NaHCO3, pH 7.4, and gassed with 5% CO2 and 95% O2 at room temperature. The slices were transferred to a recording chamber (1.5 ml) perfused with aCSF at room temperature or 32° C. Whole-cell current clamp recordings were obtained using a 700B Multiclamp amplifier (Axon Instruments) (Jiang et al., “A Kainate Receptor Increases The Efficacy of Gabaergic Synapses,” Neuron 30:503-13 (2001); Tian et al., “An Astrocytic Basis of Epilepsy,” Nat Med 11:973-81 (2005), which are hereby incorporated by reference in their entirety). Concentric bipolar stimulating electrodes (FHC) were placed ˜100-400 μm ventromedial to the patched VL thalamic neuron. Stimulation was delivered through a constant isolated current source (ISO-Flex stimulus isolator with a Master-8-vp stimulator; AMPI) and consisted of monophasic 60 μs square pulses of varying amplitude (15, 25, 50 μA) and frequency (25, 75, 125, 200 Hz). Based upon maximum current amplitude and the surface area of the electrode, it is estimated that the maximum charge density was in the range of ˜1-10 μC/cm^2. The artifacts of the HFS signal were blanked and staggered to allow continuous observation of the 2.5 Hz signal (Anderson et al., “Selective Attenuation of Afferent Synaptic Transmission as a Mechanism of Thalamic Deep Brain Stimulation-Induced Tremor Arrest,” J Neurosci 26:841-50 (2006), which is hereby incorporated by reference in its entirety). Adenosine measurements were detected using needle shaped electrode (Pt/Ir wire) biosensors (Sarissa Biomedical). Calibration was carried out at the beginning and end of each slice experiment in the bath above the slice. Measurements were obtained ˜100 μm from the stimulation electrode in the thalamic slice. […].
To further analyze the role of adenosine in HFS, the effect of perfusion with an aCSF containing 1-100 μM adenosine in thalamic slices was studied. […]. […] The AMPA receptor antagonist, CNQX could not be tested due to its direct effect on EPSCs (Wang et al., “Astrocytic Ca(2+) Signaling Evoked by Sensory Stimulation in Vivo,” Nat Neurosci 9:816-23 (2006), which is hereby incorporated by reference in its entirety) (FIG. 3G). […]. […]

harmaline-induced tremor = test: Harmaline-induced tremor, intrathalamic delivery by bilateral microdialysis probes; format: in vivo, mice; settings: for tremor activity: thalamus; for tremor following washout: after cessation of microdialysis of agonist; for time course of depression of tremor: microdialysis perfusion
Description: Harmaline was administed i.p. 20 min prior to DBS (20-30 mg/kg) (Wilms et al., “Animal Models of Tremor,” Mov Disord 14:557-71 (1999); Martin et al., “Harmaline-Induced Tremor as a Potential Preclinical Screening Method for Essential Tremor Medications,” Mov Disord 20:298-305 (2005), which are hereby incorporated by reference in their entirety). 6-OHDA (3 μg/μl in saline containing 0.1% ascorbic acid) was injected in the right median forebrain bundle (AP: −1.2 mm; ML: ±1.1 mm; DV: −5.0 mm in a volume of 2 μl) (Jolicoeur et al., “Hypokinesia, Rigidity, and Tremor Induced by Hypothalamic 6-OHDA Lesions in The Rat,” Brain Res Bull 26:317-20 (1991), which are hereby incorporated by reference in their entirety) in mice anaesthetized with urethane (1.6 g/kg). Only animals that developed body tremor were included in the study. Tacrine was administered in a dose of 2.5 mg/kg i.p. and induced a robust jaw response with the peak frequency within the 3-5 Hz range (Cousins et al., “Tremulous Jaw Movements Induced by The Acetylcholinesterase Inhibitor Tacrine: Effects of Antiparkinsonian Drugs,” Eur J Pharmacol 322:137-45 (1997), which is hereby incorporated by reference in its entirety). […] For electrode and microdialysis implantation, mice were anaesthetized with a mixture of Ketamine (60 mg/kg) and Xylazine (10 mg/kg) and placed into a stereotactic frame. The skull was exposed and concentric bipolar microelectrodes (SNE-100, KOPF) or microdialysis probes (Bioanalytical Systems, Inc.) were implanted into the ventrolateral thalamic nucleus at the following coordinates: AP: −1.4 mm; ML: ±0.9 mm; DV: −3.7 mm. The electrodes or microdialysis probes were attached to the skull with dental cement. Following 24 hrs recovery, stimulation was delivered through a constant isolated current source (An ISO-Flex stimulus isolator with a Master-8-vp stimulator; AMPI) and consisted of monophasic 60 μs square pulses of varying amplitude (15, 25, 50 μA) and frequency (25, 75, 125, 200 Hz). The electrodes implanted in tremor patients has 4 contacts with a total surface area of 0.24 cm^2, an impedance ˜500 Ohm, and an upper limit of 30 μC/cm^2 in charge density (Kuncel et al., “Selection of Stimulus Parameters for Deep Brain Stimulation,” Clin Neurophysiol 115:2431-41 (2004), which is hereby incorporated by reference in its entirety). In mice, electrodes with a smaller tip (diameter 0.0055-0.250 mm, surface area 0.001-0.05 mm^2) were used and the current amplitude was adjusted to obtain charge density within the clinical range. Microdialysis probes were perfused 24 hrs after implantation using a microinjection pump (Harvard Apparatus Inc. USA) at a rate of 2 μl/min. The perfusion buffer contained (in mM): 138 NaCl, 1.5 K2HPO4, 2 CaCl2, 2 MgCl2, 10 HEPES, pH 7.3. […]. Tremor was recorded by either EMG electrodes placed in the occipital muscles or by the Convuls-1 pressure transducer (Columbus Instruments) in awake freely moving animals. […]. The mice were perfusion-fixed and sectioned on a vibratome (TPI) for confirmation of electrode or microdialysis probe placements.
[…]. Microdialysis probes were inserted bilaterally in thalamus 24-48 hrs prior to administration of harmaline. […].

Ecto-ATPase [2] = settings: Chen et al., endothelial cells; cited from earlier work
Rat Parotid Ecto-ATPase = settings: Dowd et al.; cited from earlier work
adenosine kinase = adenosine kinase (Homo sapiens, UniProt P55263); settings: cited from earlier work
adenosine transport = settings: cited from earlier work; for Ki: adenosine transport inhibitors
[3] = biological target: Nucleoside Triphosphate Diphosphohydrolases; settings: Gendron et al.; cited from earlier work
[4] = biological target: S-adenosylhomocysteine hydrolase (Homo sapiens, UniProt P23526); settings: cited from earlier work
Ecto-ATPase [5] = settings: Yegutkin et al., rat liver plasma membranes; cited from earlier work
thalamic neurons [6] = test: HFS-induced depression of eEPSPs in thalamic slices, pharmacology; format: cell-based, mouse; settings: 50 μM; HFS 250 μA, 100 μs, 5 sec, 20° C.
thalamic neurons [7] = test: HFS-induced membrane depolarization of thalamic neurons; format: cell-based, mouse; settings: thalamic slices during HFS

S-adenosylhomocysteine hydrolase, sequence (P23526 whole entry): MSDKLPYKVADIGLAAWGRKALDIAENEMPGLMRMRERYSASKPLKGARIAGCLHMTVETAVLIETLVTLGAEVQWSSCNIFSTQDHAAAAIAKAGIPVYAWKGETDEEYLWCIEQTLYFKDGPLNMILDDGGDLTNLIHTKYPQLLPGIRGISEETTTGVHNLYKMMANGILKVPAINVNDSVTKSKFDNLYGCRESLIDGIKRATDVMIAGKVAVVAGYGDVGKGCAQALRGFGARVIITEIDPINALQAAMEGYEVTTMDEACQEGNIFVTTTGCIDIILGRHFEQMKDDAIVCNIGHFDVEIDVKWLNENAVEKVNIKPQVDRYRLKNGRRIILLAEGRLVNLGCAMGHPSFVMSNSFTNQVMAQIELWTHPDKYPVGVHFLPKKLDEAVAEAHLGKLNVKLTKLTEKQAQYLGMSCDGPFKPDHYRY
adenosine kinase, sequence (P55263 whole entry, species assumed): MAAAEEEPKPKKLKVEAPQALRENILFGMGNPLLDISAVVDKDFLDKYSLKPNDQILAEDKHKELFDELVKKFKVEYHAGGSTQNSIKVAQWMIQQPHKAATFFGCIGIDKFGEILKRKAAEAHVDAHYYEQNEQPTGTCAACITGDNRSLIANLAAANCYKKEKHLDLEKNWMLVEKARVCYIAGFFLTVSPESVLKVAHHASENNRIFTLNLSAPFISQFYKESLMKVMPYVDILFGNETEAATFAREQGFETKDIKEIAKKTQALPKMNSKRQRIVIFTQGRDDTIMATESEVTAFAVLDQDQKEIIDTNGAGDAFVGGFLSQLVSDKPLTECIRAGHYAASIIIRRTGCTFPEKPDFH

Compound: Nc1ncnc2c1ncn2[C@@H]1O[C@H](CO)[C@@H](O)[C@H]1O [adenosine]
- EC50 (thalamic neurons [1]; Mus musculus, Neuron, aCSF containing 1-100 μM adenosine, read-out: ED50 for depression of eEPSP amplitude): 3350 ± 750 nM
- maximal reduction of eEPSP amplitude (thalamic neurons [1]; aCSF containing 1-100 μM adenosine): 76.13±6.47 % of control values
- tremor activity (harmaline-induced tremor; adenosine 1-10 mM in microdialysis perfusate): reduced tremor activity with a potency comparable to DBS
- tremor following washout (harmaline-induced tremor): rebound effect was often observed
- time course of depression of tremor (harmaline-induced tremor): developed slowly over minutes

Compound: Nc1ncnc2c1ncn2[C@@H]1O[C@H](COP(=O)(O)CP(=O)(O)OP(=O)(O)O)[C@@H](O)[C@H]1O [α,β-MeATP]
- pIC 50 (Ecto-ATPase [2]): 4.5

Compound: O=S(=O)(O)c1cc(N=C=S)ccc1C=Cc1ccc(N=C=S)cc1S(=O)(=O)O [DIDS, 4,4′diisothiocyanatostilbene-2,2′disulphonec acid]
- IC50 (Rat Parotid Ecto-ATPase): 150000 nM

Compound: Nc1ncnc2c1c(I)cn2[C@@H]1C[C@H](N)[C@@H](O)[C@H]1O [A-134974]
- IC50 (adenosine kinase; McGaraughty et al.): 0.06 nM

Compound: Cc1ncc2n1-c1ccc(Cl)cc1C(c1ccccc1F)=NC2 [midazolam]
- Ki (adenosine transport; unit inferred): 1000 nM

Compound: Nc1ncnc2c1ncn2[C@@H]1O[C@H](COP(=O)(O)OP(=O)(O)NP(=O)(O)O)[C@@H](O)[C@H]1O [AMP-PNP]
- pIC 50 (Ecto-ATPase [2]): 4.0

Compound: CCCn1cnc2c1c(=O)n(CCCCC(C)=O)c(=O)n2C [Propentofylline]
- Ki (adenosine transport): 10000 to 100000 nM

Compound: 8-CH2BuS-ATP
- Ki [3]: 45000 nM

Compound: NC(=O)C1CN(CC(=O)Nc2c(Cl)cccc2Cl)CCN1CCCC(c1ccc(F)cc1)c1ccc(F)cc1 (centres unmarked) [mioflazine]
- Ki (adenosine transport; unit inferred): 10 nM

Compound: Nc1ncnc2c1c(Br)cn2C1CC(N)C(O)C1O (stereo not drawn) [A-286501, N7-((1′R,2′S,3′R,4′S)-2′,3′-dihydroxy-4′-amino-cyclopentyl)-4-amino-5-bromo-pyrrolo[2,3-a]pyrimidine]
- IC50 (adenosine kinase): 0.47 nM

Compound: Nc1ncnc2c1ncn2C[C@@H](O)[C@@H](O)C(=O)O [DEA, eritadenine[2(R),3(R)-dihydroxy-4-(9-zdenyl)-butyric acid]]
- Ki [4]: 30 nM

Compound: OC[C@H]1O[C@@H](n2cnc3c(NC4CCCC4)nc(Cl)nc32)[C@H](O)[C@@H]1O [CCPA, 2-chloro-N6-cyclopentyladenosine]
- depression of eEPSPs (thalamic neurons [1]; 1.0 μM): 75.59±4.98%
- tremor activity (harmaline-induced tremor; CCPA 10-100 μM in microdialysis perfusate): attenuated; also recorded: reduced tremor activity with a potency comparable to DBS
- tremor following washout (harmaline-induced tremor): rebound effect was often observed
- time course of depression of tremor (harmaline-induced tremor): developed slowly over minutes

Compound: COC(=O)C(O)CCn1cnc2c(N)ncnc21 (centres unmarked) [DZ2002, methyl 4-(adenine-9-yl)-2-hydroxybutanoate]
- Ki ([4]; read-out: Ki): 17.9 nM

Compound: CCCCSc1nc2c(N)ncnc2n1[C@@H]1O[C@H](COP(=O)(O)OP(=O)(O)OP(=O)(O)O)[C@@H](O)[C@H]1O [8-Bus-ATP]
- Ki [3]: 10000 nM

Compound: Nc1ncnc2c1ncn2[C@@H]1O[C@H](CO[P@](=O)(O)O[P@](=O)(O)O[P@@](=O)(O)S)[C@@H](O)[C@H]1O [ATPyS]
- pIC 50 (Ecto-ATPase [2]): 5.2

Compound: Nc1nccc2c1ncn2C[C@@H](O)[C@@H](O)C(=O)O [C3-DEA, 3-deaza-DEA]
- Ki ([4]; read-out: Ki): 1500 nM

Compound: Nc1ncnc2c1ncn2[C@@H]1O/C(=C\F)[C@@H](O)[C@H]1O [ZDDFA, (Z)-4′,5′-didehydro-5′-deoxy-5′-fluoroadenosine]
- Ki [4]: 39.9 nM

Compound: Cc1cccc(C)c1NC(=O)CN1CCN(CCCC(c2ccc(F)cc2)c2ccc(F)cc2)CC1 [lidoflazine]
- Ki (adenosine transport; unit inferred): 100 nM

Compound: 3-deaza-DEA methylester [C3-OMeDEA]
- Ki ([4]; read-out: Ki): 1500 nM

Compound: O=C1CCc2cc(OCCCCc3nnnn3C3CCCCC3)ccc2N1 [cilostazol]
- IC50 (adenosine transport; adenosine uptake (Liu et al.)): 10000 nM

Compound: reactive blue
- pIC 50 (Ecto-ATPase [5]): 4.3
- IC50 (Rat Parotid Ecto-ATPase): 28000 nM

Compound: CCOc1cc2nc(N3CCOCC3)nc(N3CCC(n4c(=O)c5cc(C)ccc5n(C)c4=O)CC3)c2cc1OCC [KF 24345, 3-[1-(6,7-diethoxy-2-morpholinoquinazolin-4-yl)piperidin-4-yl]-1,6-dimethyl-2,4(1H,3H)-quinazolinedione hydrochloride]
- Ki (adenosine transport): 0.1 to 1 nM

Compound: COc1cc(C(=O)OCCCN2CCCN(CCCOC(=O)c3cc(OC)c(OC)c(OC)c3)CC2)cc(OC)c1OC [dilazep]
- Ki (adenosine transport): 0.1 to 1 nM

Compound: CCOc1ccc(Nc2ccc(C(=C3C=CC(=[N+](CC)Cc4cccc(S(=O)(=O)[O-])c4)C=C3)c3ccc(N(CC)Cc4cccc(S(=O)(=O)O)c4)cc3)cc2)cc1 [Coomassie brilliant blue R]
- IC50 (Rat Parotid Ecto-ATPase): 114000 nM

Compound: N[C@@H](CCCP(=O)(O)O)C(=O)O [APV]
- effect on HFS-induced depression of eEPSPs (FIG. 3G) (thalamic neurons [6]): no significant effect
- HFS-induced change of neuronal membrane potential (depolarization / hyperpolarization) (thalamic neurons [7]): 18.15±6.69 mV

Compound: N#Cc1cc2[nH]c(=O)c(=O)[nH]c2cc1[N+](=O)[O-] [CNQX]
- HFS-induced change of neuronal membrane potential (depolarization / hyperpolarization) (thalamic neurons [7]): 15.91±4.53 mV
